Experimental data from patent publication US8093273B2, “Flavanoids and isoflavanoids for the prevention and treatment of cardiovascular diseases” (Resverlogix Corp., priority 2004, dated 2012).

How the values were obtained:
human ApoA-I promoter = assay: ApoA-I promoter induction in HepG2 liver cells (pAI.474-Luc luciferase reporter); format: cell-based; conditions: average values at 15 μM, 48 hours incubation
Description: This study determined whether compounds of the invention have an effect on ApoA-I promoter activity expression in HepG2 cells, a liver cell line. Cells were grown under conditions recommended by the ATCC and summarized by Wong.
The promoter region of the gene encoding human ApoA-I was isolated and ligated upstream the structure gene of firefly luciferase to construct a reporter plasmid (pAI.474-Luc). The reporter plasmid, along with pRSV-β-galactosidase (as a control for transfection efficiency), were co-transfected into HepG2 cells. The cells were then incubated in an MEM selection media containing 20% fetal calf serum supplemented with G418 (final concentration: 0.5 mg/mL, Gibco) to give established strains that stably express from the reporter gene. The strains were seeded to a 6-well culture plates and incubated for 48 hours at 37° C. under 5% carbon dioxide. Cells were starved for 24 hrs in MEM selection media containing 0.5% FBS. Then, a solution of the compounds of the invention in DMSO (or other appropriate solvent) was added to the wells at a final concentration of 0 to 100 μM in MEM selection media containing 0.5% FBS.
After further incubation for 48 hours, the cells were harvested and lysed using Reporter Lysis Buffer (PROMEGA E3971), and 50 μL of luciferase assay reagent (PROMEGA E4550 Luciferase Reporter 1000 assay system) were added to measure luciferase activity with a luminometer (Fluoroskan Ascent FL from Thermo electron Corporation). Luciferase activity was normalized to lysate protein concentrations, measured using Bradford Reagent (Biorad Protein Assay reagent Cat #500-0006).

Caco-2 permeability = format: in vitro ADME, human; conditions: human, Caco-2
Text: The Caco-2 cell drug transport model is widely used for screening compounds in drug discovery to assess intestinal transport and predict absorption rates.

ApoA-I protein = ApoA-I protein expression in HepG2 cells (ELISA of conditioned media); format: cell-based, human; conditions: 7.5 μM
Description: This study confirmed that compounds of the invention have an effect on ApoA-I protein secretion in HepG2 (liver) cells by measuring whether stimulation of transcriptional activity of the endogenous ApoA-I promoter in the HepG2 cells increased the abundance and secretion of ApoA-I protein.
The HepG2 cell line was obtained from the ATCC and cultured in MEM media supplemented with 10% FBS (Gibco), with 1 mM sodium pyruvate, 0.1 mM MEM non-essential amino acid, 2 mM L-glutamine, 100 U/ml penicillin, 100 μg/ml streptomycin and 5 μg/ml plasmocin. Cells were maintained at 37° C. in an atmosphere of 5% CO2 Cells were grown to 85% confluency prior to initiating the experiment.
Cells were plated and allowed to adhere overnight in a phenol red-free DMEM containing 10% of Charcoal/Dextran treated FBS (Hyclone), with 1 mM sodium pyruvate, 0.1 mM MEM non-essential amino acid, 2 mM L-glutamine, 100 U/ml penicillin, 100 μg/ml streptomycin and 5 μg/ml plasmocin. The medium was removed, and cells were washed in 1×PBS. Cells were then starved in phenol red-free DMEM (serum free) for a period of 24 hours. Cells were then mock treated (untreated, DMSO), or treated with compound of the invention diluted in phenol red-free DMEM (serum free) media at a concentration of 7.5 μM. Cells and media were harvested at 0, 6 and 24 hours following compound treatment.
Medium was removed from cells at the desired times and applied to a solid phase capture sandwich in an ELISA assay according to manufacturer's instructions (Total human Apolipoprotein ELISA Assay-Alercheck).

Papp (Caco-2 permeability): 6.36 ×10⁻⁶ cm/s
Compound: O=c1cc(-c2ccc(O)cc2)oc2ncccc12 [Example 34, 2-(4-Hydroxy-phenyl)-pyrano[2,3-b]pyridin-4-one]
ApoA-I Promoter Induction (human ApoA-I promoter): increased | ApoA-I content in the medium (ELISA) (ApoA-I protein; 6 and 24 hours, vs untreated cells and cells treated with solvent): increased significantly | time after addition of compound at which ApoA-I levels in the medium start to increase (ApoA-I protein; time course 0, 6, 24 hours): ~6 h
